Experimental data reported in article PMC12040169 (PLOS Biology, 2025).

Assay: in vitro
Conditions: human, hela cells

Row | Compound | viability at 28.5 h, 10 µM
1 | CC(N)Cc1cn(C)c2ccccc12 (centres unmarked) [CBK012030C] | 83.8%

Same assay, conditions: human, hela cells, % viability

Row | Compound | viability at 28.5 h, 10 µM
2 | Nc1nc(-c2ccccc2)c(C(=O)Nc2ccccc2)s1 [CBK058068] | 95.2%
3 | O=C(c1ccc(F)cc1)N1C[C@@H](c2ccsc2)[C@@H]2CN(Cc3ccccc3)CC[C@@H]21 [CBK285635] | 94.7%
4 | O=S1(=O)N=C(N2CCN(Cc3ccc4c(c3)OCO4)CC2)c2ccccc21 [CBK266064] | 104%
5 | CCOC(=O)c1cnc(SC)nc1N1CCOCC1 [CBK018971] | 90.7%
6 | COc1ccc(Oc2ncnc3c2oc2ccccc23)cc1 [CBK291224] | 86.4%
7 | CCNC(=S)N1CCN(C(=O)c2cccc(OC)c2)CC1 [CBK154778] | 97.3%
8 | Cc1cc(C)c2c(CC(=O)N(C)CCN(C)C)coc2c1 [CBK282174] | 106%
9 | Cc1cc(C(=O)N2CCCC2c2ccc[nH]2)c2c(C)noc2n1 (centres unmarked) [CBK305245] | 91.5%
10 | Cn1c(N2CCOCC2)cc(=O)c2ccccc21 [CBK007775] | 93.7%
11 | Cc1cc(N2CCCC2)c(F)cc1CN1CCC(O)C(C)C1 (centres unmarked) [CBK282963] | 91.6%
12 | CCC(CC)C(=O)Nc1nc(OC)cnc1-c1cc(Cl)cc(Cl)c1 [CBK145338] | 95.8%
13 | Oc1ccc(/N=N/c2cccc(Br)c2)cc1/C=N/c1ccc(-c2nc3ncccc3o2)cc1 [CBK262009] | 85.9%
14 | Cc1noc2nc(-c3ccco3)cc(C(=O)NCc3nc4ccccc4[nH]3)c12 [CBK295608] | 93.5%
15 | COc1ccc(C(C)C)cc1-c1cnc2cccnc2c1N [CBK081211] | 105%
16 | CCOC(=O)CCSc1c(CC)c(C)nc2ccccc12 [CBK153457T] | 93.5%
17 | O=[N+]([O-])c1ccc(CN2CCC(Oc3cncc(OCc4ccc(Cl)c(Cl)c4)n3)C2)cc1 (centres unmarked) [CBK084426] | 97.1%
18 | Cc1nnc(SCC(=O)NCc2c(C)c(Cl)cc(C(C)C)c2O)s1 [CBK269662] | 86.1%
19 | CCOc1ccc2cc(C3CC(c4ccccc4)=NN3C(=O)CCC(=O)O)c(Cl)nc2c1 (centres unmarked) [CBK296097] | 114%
20 | CCc1nc(CC(=O)NC(c2ccc(F)cc2)C2CCCO2)cs1 (centres unmarked) [CBK306336] | 117%
21 | CC(C)C(=O)N1CCCC2(CC1)CN(C)Cc1ccccc1O2 (centres unmarked) [CBK285132] | 103%
22 | COc1ccc(OC)c(N2Cc3ccc(OC)c(OC)c3C2=O)c1 [CBK113161] | 82.9%
23 | CCC(c1ccc2ccccc2c1)c1c(O)c2ccccc2oc1=O (centres unmarked) [CBK016681] | 96.7%

Row | Compound | viability at 28.5 h, 10 µM
24 | COc1ccc([C@@]23CCC(NC(=O)Nc4cc(C(F)(F)F)ccc4F)C[C@@H]2N(C)CC3)cc1OC (some centres unmarked) [CBK047552T] | 87.2%
25 | Oc1cccc(-c2cc(CC3(NCc4ccc(F)cc4)COC3)no2)c1 [CBK289646] | 108%
26 | Nc1ncc(-c2ccsc2)nc1NCc1ccncc1 [CBK063614] | 107%
27 | NS(=O)(=O)c1ccc(NC(=O)c2ccc(NC(=O)C3COc4ccccc4O3)cc2)cc1 (centres unmarked) [CBK266573] | 101%
28 | Brc1cccc(/C=N/N2CCN(Cc3cccc4ccccc34)CC2)c1 [CBK263011] | 98%
29 | Nc1nc(C2COc3ccccc3O2)ncc1S(=O)(=O)c1ccc(Cl)cc1 (centres unmarked) [CBK074808] | 96.2%
30 | CCN1CCN(C(=O)CN(CC)S(=O)(=O)c2ccc(Cl)cc2)CC1 [CBK268461] | 88.4%
31 | COc1cc(CN2CCN(Cc3ccco3)CC2)cc(OC)c1OC [CBK074520G] | 88.2%
32 | CC(=O)Oc1c(C)cc(CN(C)C(C)c2ccncc2)cc1C (centres unmarked) [CBK306915] | 73.2%
33 | C=CCn1c2ccccc2c2nnc(SC(CC)C(=O)N3c4ccccc4Sc4ccccc43)nc21 (centres unmarked) [CBK263040] | 90.7%
34 | Cc1ccc(S(=O)(=O)Nc2cccc3ccccc23)c([N+](=O)[O-])c1 [CBK267381] | 71.9%
35 | CN(C)c1ccccc1-c1cc(NC2CCCCC2)ncn1 [CBK037041] | 105%
36 | O=C1COc2ccccc2C/C=C/C[C@H]2CN(C(=O)c3noc4c3CCCC4)CC[C@H]2N1 [CBK292099] | 116%
37 | COc1ccc(-c2ncc(OCC3CCCN3C)nc2N)c(OC)c1 (centres unmarked) [CBK145091] | 88.9%
38 | O=C(C1CCC1)N1CCC(c2onc3c2CCCCC3)CC1 [CBK284496] | 104%
39 | OC(Cn1nnc2ccccc21)Cn1c(-c2ccccc2)c(-c2ccccc2)c2ccc3ccccc3c21 (centres unmarked) [CBK264054G] | 92.9%
40 | O=C(Nc1ccc(N2CCNCC2)nc1)c1cccs1 [CBK029430T] | 111%
41 | CCCCOc1ccc(Oc2ncc(C(F)(F)F)cc2Cl)cc1 [CBK161629] | 94.4%
42 | Cc1sc2ccc(-c3ccccc3)cc2[n+]1CCCS(=O)(=O)[O-] [CBK260947] | 90.7%
43 | CC(=O)Nc1cc2ccccc2nc1C1CCN(C(=O)C(C)C)CC1 [CBK285259] | 83.7%
44 | O=C1CC(C(=O)O)CN(c2cccs2)C1 (centres unmarked) [CBK021796] | 92.8%
45 | c1ccc2c(CCN3CCC[C@@H]3CN3CCCC3)c[nH]c2c1 [CBK149104] | 87.4%

Row | Compound | viability at 28.5 h, 10 µM
46 | O=C(O)CCCn1cc(NC(=O)CCc2ccccc2)cn1 [CBK287055] | 86.4%
47 | Cc1nn(C(C)C)c(C)c1CN(CCO)Cc1cccs1 [CBK283016] | 86%
48 | O=C(O)CCC(=O)NC1CCN(Cc2ccccc2)CC1 [CBK287103] | 86.5%
49 | O=C(O)C1CCN(C(=O)Nc2ccccc2Cl)CC1 [CBK161407] | 106%
50 | Cc1nccn1CCC1CCN(C(=O)CCCn2ccnc2)CC1 [CBK281988] | 95.3%
51 | CC(=O)Nc1cccc(Oc2nccnc2/C=C/c2ccccc2)c1 [CBK106881] | 91.6%
52 | Cc1ccc2c(NC(=O)c3cc4c([nH]c3=O)CCC4)c(C)ccc2n1 [CBK281568] | 93%
53 | C[C@@H](Cn1nc2c(cc1=O)CCCC2)NC(=O)c1ccco1 [CBK284559] | 92.2%
54 | CCn1c(SCC(=O)NC2CC2)nc2ccccc21 [CBK305864] | 117%
55 | O=C1CO[C@H]2CN(Cc3ncc[nH]3)C[C@H]2N1Cc1ccncc1 [CBK289259] | 108%
56 | CCCc1[nH]nc(O)c1CCc1ccc(OC)cc1 [CBK081128] | 102%
57 | O=C1c2ccccc2C2(c3ccccc3)NCCN12 (centres unmarked) [CBK067098] | 101%
58 | COc1ccc(-c2noc([C@@H]3Cc4[nH]cnc4CN3C(=O)Nc3ccc(C)cc3)n2)cc1 [CBK288968] | 92.9%
59 | CCOC(=O)CN1C(=O)S/C(=C/c2ccc(OCc3ccc(Br)cc3)cc2)C1=O [CBK264686] | 99.1%
60 | C1CN=C(SCCCCSC2=NCCCN2)NC1 [CBK278223B] | 107%
61 | CC(C)NC(=O)Cn1c(-c2ccc(F)cc2)cc2cccnc21 [CBK284862] | 107%
62 | O=C(c1ccco1)N1CCN(c2ccc(-c3cccc(Cl)c3Cl)cn2)CC1 [CBK037737] | 95.4%
63 | O=C(O)c1ccc(S(=O)(=O)NC2CCS(=O)(=O)C2)cc1 (centres unmarked) [CBK262477] | 110%
64 | O=C(c1csc(-c2ccccc2)n1)N1CCn2nc(C3CC3)cc2C1 [CBK304676] | 95.9%
65 | O=C(Cc1ccc(F)cc1Cl)N1CCn2c(nnc2C2CC2)C1 [CBK283773] | 87.8%
66 | COc1ccc(C)cc1S(=O)(=O)Nc1cc(Cl)ccc1C(=O)NCc1ccccc1 [CBK113954] | 85.5%
67 | COc1ccc(C2C(C(=O)c3ccccc3)=C(O)C(=O)N2CCN(C)C)cc1OC (centres unmarked) [CBK263352] | 119%

Row | Compound | viability at 28.5 h, 10 µM
68 | CCn1cc(S(=O)(=O)NC2(c3ccc(F)cc3)CC2)cn1 [CBK282801] | 112%
69 | O=C1Nc2ccc(/C=C/c3ccccc3)cc2C(=O)N2CC[C@H](NC(=O)N3CCOCC3)[C@@H]12 [CBK289344] | 98.1%
70 | O=C(Nc1ccc2oc(-c3cccnc3)nc2c1)c1ccc(-c2ccc(OC(F)(F)F)cc2)o1 [CBK107713] | 101%
71 | CC(C)CC(C(=O)Nc1nnc(C(C)C)s1)N1C(=O)c2ccccc2C1=O (centres unmarked) [CBK091610] | 77.3%
72 | Cc1cc(C(=O)NCc2ccc(C(=O)O)cc2)no1 [CBK268108] | 98.3%
73 | O=C(NCCn1nc(-c2cccs2)oc1=O)C1CCCCC1 [CBK282343] | 105%
74 | CC(=O)N1CCC(C(=O)NC(=O)NCc2ccc3c(c2)CCO3)CC1 [CBK034837] | 93.8%
75 | CNS(=O)(=O)c1cccc(C(=O)N(C)Cc2ccsc2)c1 [CBK303993] | 113%
76 | O=C1Nc2cc(Cl)ccc2C(=O)N2CCN(C(=O)C3CCCCC3)C[C@H]12 [CBK289586] | 87.1%
77 | O=C(O)CCC(=O)N1CCN(C2CCCCC2)CC1 [CBK286918] | 94.1%
78 | O=c1[nH]c(=O)c2cc(S(=O)(=O)NC(c3ccccc3)c3ccccc3)ccc2[nH]1 [CBK286375] | 89.4%
79 | COc1ccc(N(CC(=O)N2CCN(Cc3ccc4c(c3)OCO4)CC2)S(C)(=O)=O)cc1Cl [CBK265258] | 84.3%
80 | CCOC(=O)CNC(=O)N1CCCC1c1nc(-c2ccccc2)c2ccccn12 (centres unmarked) [CBK046502] | 103%
81 | CCOC(=O)c1[nH]c2ccccc2c1NC(=O)c1ccc(Cl)cc1Br [CBK160140] | 96.7%
82 | CN(C)CC1CCCCN1S(=O)(=O)c1ccc(C(C)(C)C)cc1 (centres unmarked) [CBK051347] | 108%
83 | O=C1CN(C(=O)NCc2ccc(Cl)cc2)CCN1 [CBK155867] | 109%
84 | CC(C)CC(CO)Nc1ncnc2ccc(S(C)(=O)=O)cc12 (centres unmarked) [CBK304203] | 107%
85 | O=[N+]([O-])c1ccccc1S(=O)(=O)N1CCN(c2ccccc2)CC1 [CBK261755] | 85.8%
86 | CC(C)(O)C1(C)OC(NC2C3CC4CC(C3)CC2C4)=NC1=O (centres unmarked) [CBK126370] | 91.2%
87 | Cc1ccccc1C1(O)CCN(CC(O)c2ccc3c(c2)OCCCO3)CC1 (centres unmarked) [CBK286332] | 103%

Same assay, conditions: human, hela cells, % viability, bulk resorufin, single well

Row | Compound | viability at 28.5 h, 10 µM
88 | Cn1c(=O)c2[nH]c(NN=C3C(=O)NC(=O)NC3=O)nc2n(C)c1=O [CBK262891] | 103%
89 | CCCCN1C(=O)C(O)(c2c(C)nn(CCC#N)c2N)c2ccccc21 (centres unmarked) [CBK306211] | 110%
